Structures can show the parent of a compound that is named as a salt.
Assays:
mice = assay: Maximal electroshock (MES) model in mice, i.p.;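 for all read-outs here: Electroshock-induced convulsion model serving to demonstrate antiepileptic efficacy against generalized and partial seizures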; assay type: in vivo; conditions: for ED50: Mus musculus, ip; for activity in the MES model in mice: statement in words
rats [1] = assay: Maximal electroshock (MES) model in rats, p.o.;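 for all read-outs here: rat MES model gauging antiepileptic efficacy versus generalized and partial seizures after oral dosing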; assay type: in vivo; conditions: rats, p.o., Table 15; for ED50: Rattus norvegicus, po, read-out: RATS MES 50
[2] = Neurotoxicity in rats (positional sense test and gait stance test), p.o.; conditions: rat, in vivo, po
Method: (§1) Neurotoxicity of the claimed agents was also assessed in mice (i.p. administration) by the rotorod ataxia test and/or in rats (p.o. administration) by positional sense test and gait stance test. […] The term quantitating the neurotoxicity is the medial neurological toxic dose (TD50), was determined in the above tests.

[3] = Neurotoxicity in mice (rotorod ataxia test), i.p.; conditions: mouse, in vivo, ip
Method: as §1

rats [4] = assay: Neurotoxicity in rats (positional sense test and gait stance test), p.o.; conditions: rats, p.o.; Table 16
Method: as §1

male ICR albino mice = assay: Hypobaric hypoxia survival time in mice; assay type: in vivo
Method: Dessicator B was disconnected and allowed to equilibrate with room air whilst dessicator A was evacuated to a pressure of 100mmHg. […] The survival time from the moment of induction of hypoxia to the time of cessation of respiration was recorded for each mouse for a maximum of 15 minutes after which time room air was reintroduced to dessicator B. Survivors were monitored for signs of lethargy or vitality.
Effect of drug treatment was assessed as the percent of the survival time of the drug treated group with respect to the saline injected or vehicle injected control group. Control groups were run twice, before and after each experimental group and consisted of 12-16 mice in groups of 4 mice. Each experimental group always consisted of 4 mice to ensure a constant residual volume of oxygen in all tests. The effect of each dose of test drug was determined in duplicate i.e. two groups of 4 mice.
All drugs were administered intra-peritoneally at the dose indicated one hour prior to exposure to hypoxia.

[5] = tested on: mechanically dissociated neonatal rat cerebellum; assay: Reversal of NMDA induced cell death in cultures of neonatal rat cerebellum; assay type: cell-based; conditions: for SURVIVING CELL IN CULTURE: relative to control (100%)
Method: The cerebellum was aseptically dissociated from 6 or 7-day old rat pups and placed in a 15ml sterile plastic conical tube containing 3ml of Dulbecco's modified Eagle's medium (DMEM) with a high glucose concentration ([…]) and 2mM (v/v) L-glutamine and an antibiotic antimitotic mixture. The cerebella were then dissociated after 20-25 passages through a sterile 13 gauge, 10cm long stainless steel needle attached to a 5ml syringe with an inserted 45 micrometer pore nylon sieve. The dissociated cells were centrifuged at 200g for 5 minutes. The supernatant was discarded and the cells resuspended in medium enriched with 15% (v/v) heat inactivated fetal calf serum. Cell viability was determined by the tryptan blue exclusion test.
Cells were plated at a density of 200/mm^2 on poly-L-lysine coated surfaces. Poly-L-lysine coated glass coverslips were prepared at least one hour in advance of plating by immersing sterile coverslips in sterile distilled water solution containing 15 microgram/ml poly-L-lysine, and washing in sterile water just prior to use. The plated cells were covered with enriched medium and incubated at 37°C in an atmosphere of 5% CO2 in air and 97% humidity. After three days in culture, the media was replaced with media containing the desired test compound. Each test compound was tested in duplicate. Toxic-dose response was determined for each compound.
Four groups were run in each set of experiments; • I. Control, consisting of enriched media alone, • II. N-methyl-D-aspartate (NMDA, 1mM for 3 hours) as the cytotoxic challenge, • III. Test compound plus NMDA, and • IV. Positive control, spermine(0.01 micromoles) plus NMDA.
Nerve cell survival was evaluated by phase contrast microscopy and tryptan blue staining after 24 hours.
Surviving cells in culture are measured relative to control (100%), as described above. Percent protection is the Cell Survival for the test compound minus the NMDA effect. Thus, maximal protection is 100% minus 30% NMDA effect i.e. […]. The Effective Protection was calculated as the percent of the Percent Protection (X) divided by the maximal protection value (e.g. X x 100/70).

Male mongolian gerbils = assay: Global brain ischemia in gerbils (CA1 pyramidal neurons); assay type: in vivo; conditions: 3 injections, fraction of hippocampi protected from ischemia, 14 days post-ischemia
Method: Each artery was clamped for 5 minutes with aneurysm clips to produce global brain ischemia. The anesthesia was discontinued upon clamping. After 5 minutes the clamps were removed and the wound closed with skin clips.
For treatment, the test compound or vehicle were injected intra-peritoneally (ip) in a volume of 50 microliters of solvent per 10g body weight. The first injection was given two minutes after clamp removal, and thereafter daily for the next 2 post-operative days (total of 3 injections).
Seven groups each of 4-8 animals were compared: • I. Control; (sham- or unoperated and saline treated), • II. Vehicle treated, unoperated (when solvent is other than saline), • III. Ischemia - untreated or saline treated), • IV. Ischemia - vehicle treated (when solvent is other than saline), • V. Ischemia - Test compound treated, one sub-group per concentration tested, • VI. Ischemia and pentobarbital (40 mg/kg) as positive control).
Analysis of neuronal damage was performed 14 days post-ischemia by counting pyramidal neurons throughout the CA1 layer of the anterior hippocampus in […] thick (paraffin) coronal brain sections stained with hematoxylin and erosin.
Percent Protection values represent the fraction of hippocampi protected from ischemia in a group of animals treated with the stated dose of compound.

[6] = 50 mg/kg ip one hour prior to hypoxia
[7] = 100 mg/kg ip one hour prior to hypoxia
[8] = positive control, 0.01 micromoles plus NMDA

SMILES	ED50 (mice; Table 15) [mg/kg]	TD50 [2] [mg/kg]	TD50 ([3]; MICE TD50, mice, Table 15) [mg/kg]	RATS MES 50 (rats [1]) [mg/kg]	further results
NC(=O)CNC1CCCc2ccccc21 (racemic) [Example 4, (rac)-N-(2-Acetamido)-1-aminotetralin]					MICE MES ED50 (mice; i.p., Table 15): <100 mg/kg
CCCC(=O)NC1CCc2ccccc21 (racemic) [Example 11, (rac)-N-Butyryl-1-aminoindan]	< 300	> 50	< 300		ED50 (rats [1]): < 50 mg/kg
CN(C)C1CCc2ccccc21 (racemic) [Example 15, (rac)-N,N-Dimethyl-1-aminoindan.HCl]		> 50	< 100	50	RATS TD50 (rats [4]): >50 mg/kg; TD50 ([3]; MICE TD50, mice, Table 16): < 100 mg/kg
c1ccc(CNC2CCc3ccccc32)cc1 (racemic) [Example 16, (rac)-N-Benzyl-1-aminoindan.HCl]	< 50	> 50		50	
CC(=O)NC1CCc2cccc(C)c21 (racemic) [Example 20, (rac)-7-Methyl-N-acetyl-1-aminoindan]	< 100	> 50			ED50 (rats [1]): < 50 mg/kg; TD50 ([3]; MICE TD50): 100 mg/kg
COc1ccc2c(c1)C(N)CC2 (racemic) [Example 25, (rac)-6-Methoxy-1-aminoindan.HCl]	< 100		> 100	50	
Cc1cccc2c1C(N)CC2 (racemic) [Example 28, (rac)-7-Methyl-1-aminoindan.HCl]	< 100	> 50	< 100	<50	PROTECTION % OF RESPECTIVE CONTROL (male ICR albino mice; [6]): 361±106 % OF RESPECTIVE CONTROL; PROTECTION % OF RESPECTIVE CONTROL (male ICR albino mice; [7]): 941±34 % OF RESPECTIVE CONTROL
COc1ccc2c(c1OC)CCC2N (racemic) [Example 31, (rac)-4,5-Dimethoxy-1-aminoindan.HCl]	< 100	> 50	< 100		activity in the MES model in mice (mice): showed activity
NC1CCc2ccc(O)cc21 (racemic) [Example 34, (rac)-6-Hydroxy-1-aminoindan.HCl]	< 300		> 300		activity in the MES model in mice (mice): showed activity
Cc1ccc2c(c1)CCC2N (racemic) [Example 38, (rae)-5-Methyl-1-aminoindan.HCl]	< 100	> 50	< 100	50	
Cc1cc(C)c2c(c1)C(C)CC2N.Cl (racemic) [Example 41, (rac)-3,5,7-Trimethyl-1-aminoindan.HCl]					PROTECTION % OF RESPECTIVE CONTROL (male ICR albino mice; [6]): 187±41 % OF RESPECTIVE CONTROL; PROTECTION % OF RESPECTIVE CONTROL (male ICR albino mice; [7]): 644±316 % OF RESPECTIVE CONTROL
NC1CCc2cccc(O)c21 (racemic) [Example 42, (rac)-7-Hydroxy-1-aminoindan.HCl]		> 50		<50	PROTECTION % OF RESPECTIVE CONTROL (male ICR albino mice; [6]): 179±170 % OF RESPECTIVE CONTROL; PROTECTION % OF RESPECTIVE CONTROL (male ICR albino mice; [7]): 228±119 % OF RESPECTIVE CONTROL
c1ccc2c(c1)CCC2NC1CCc2ccccc21 (racemic) [Example 43, (rac)-M,N-Di-(1-indanyl)amine.HCl]	< 100	> 50	< 100	<50	
CN1C(=O)CN=C(c2ccccc2)c2cc(Cl)ccc21 [Diazepam, diazepam, reference compound]					PROTECTION % OF RESPECTIVE CONTROL (male ICR albino mice; 5 mg/kg ip 0.5 hour prior to hypoxia): 249±166 % OF RESPECTIVE CONTROL; PROTECTION % OF RESPECTIVE CONTROL (male ICR albino mice; 10 mg/kg ip 0.5 hour prior to hypoxia): 430±59 % OF RESPECTIVE CONTROL
CN[C@H]1CCc2ccccc21 [Example 14, (S)-N-Methyl-1-aminoindan.HCl]		> 142	100		RATS TD50 (rats [4]): >142 mg/kg; TD50 ([3]; MICE TD50, mice, Table 16): 100 mg/kg
NC1Cc2ccccc21 (stereo not drawn) [Example 27, 1-Aminobenzocyclobutene.HCl]	< 100	> 50	> 100	<50	
COc1ccc2c(c1OC)CC[C@@H]2N.Cl [Example 30, (S)-4,5-Dimethoxy-1-aminoindan, HCl]					PROTECTION % OF RESPECTIVE CONTROL (male ICR albino mice; [6]): 265±284 % OF RESPECTIVE CONTROL; PROTECTION % OF RESPECTIVE CONTROL (male ICR albino mice; [7]): 379±202 % OF RESPECTIVE CONTROL
Cl.N[C@@H]1CCc2ccc(O)cc21 [Example 35, (R)-6-Hydroxy-1-aminoindan.HCl]					SURVIVING CELL IN CULTURE ([5]; 0.005 µM + NMDA 1mM for 3 hours): 60%; PERCENT PROTECTION ([5]; 0.005 µM + NMDA, Cell Survival minus the NMDA effect): 30%; EFFECTIVE PROTECTION ([5]; 0.005 µM + NMDA, X x 100/70): 43%; SURVIVING CELL IN CULTURE ([5]; 0.010 µM + NMDA 1mM for 3 hours): 34%; PERCENT PROTECTION ([5]; 0.010 µM + NMDA, Cell Survival minus the NMDA effect): 4%; EFFECTIVE PROTECTION ([5]; 0.010 µM + NMDA, X x 100/70): 6%; SURVIVING CELL IN CULTURE ([5]; 0.100 µM + NMDA 1mM for 3 hours): 30%; PERCENT PROTECTION ([5]; 0.100 µM + NMDA, Cell Survival minus the NMDA effect): 0%; EFFECTIVE PROTECTION ([5]; 0.100 µM + NMDA, X x 100/70): 0%; PERCENT PROTECTION (Male mongolian gerbils; 0.1 mg/kg ip): 25.0%; PERCENT PROTECTION (Male mongolian gerbils; 1.0 mg/kg ip): 37.5%; PERCENT PROTECTION (Male mongolian gerbils; 10.0 mg/kg ip): 37.5%
C[C@@H]1Cc2ccccc2[C@H]1N [Example 39, (rac)-trans-2-Methyl-1-aminoindan.HCl]	< 100	> 50	< 100	<50	PROTECTION % OF RESPECTIVE CONTROL (male ICR albino mice; [6]): 600±213 % OF RESPECTIVE CONTROL; PROTECTION % OF RESPECTIVE CONTROL (male ICR albino mice; [7]): 798±249 % OF RESPECTIVE CONTROL
C[C@H]1Cc2ccccc2[C@H]1N [Example 40, (rac)-cis-2-Methyl-1-aminoindan.HCl]	< 100	> 50	< 100	<50	PROTECTION % OF RESPECTIVE CONTROL (male ICR albino mice; [6]): 374±190 % OF RESPECTIVE CONTROL; PROTECTION % OF RESPECTIVE CONTROL (male ICR albino mice; [7]): 569±173 % OF RESPECTIVE CONTROL
C#CCN[C@@H]1CCc2ccccc21.CS(=O)(=O)O [F, (R)-N-propargyl-1-aminoindan mesylate salt]	< 300				
N[C@H]1CCc2ccc(F)cc21 [K, (S)-6-fluoro-1-aminoindan]	115		< 250		activity in the MES model in mice (mice): showed activity; TD50 ([3]; MICE TD50, mice, Table 16): < 250 mg/kg
CCCC(C)C1(CC)C(=O)NC(=O)NC1=O (stereo not drawn) [Pentobarbitone, sodium pentobarbital, reference compound]					PROTECTION % OF RESPECTIVE CONTROL (male ICR albino mice; 20 mg/kg ip 0.5 hour prior to hypoxia): 325±166 % OF RESPECTIVE CONTROL; PROTECTION % OF RESPECTIVE CONTROL (male ICR albino mice; 40 mg/kg ip 0.5 hour prior to hypoxia): 446±10.5 % OF RESPECTIVE CONTROL
NCCCNCCCCNCCCN [Spermine, spermine, reference compound]					EFFECTIVE PROTECTION [5, 8]: 74%; PERCENT PROTECTION [5, 8]: 52%; SURVIVING CELL IN CULTURE [5, 8]: 82%
